Reference: US11773127B2, “Compounds and methods for treating bacterial infections” (Washington University, priority 2017, dated 2023)
Read-outs that look alike come from different tables or passages of the source.

Legend:
FmlHLD [1] = molecular target: T1, FmlHLD (Escherichia coli, UniProt P77588); experiment: biochemical; type: binding, E. coli; settings: for PI100 (percent inhibition): galactoside at 100 μM, 100 µM; for inhibition at 10 µM: read-out: PI10 (percent inhibition), galactoside at 10 μM
T1 construct: 6xHis (C); made in house; host or cells: E. coli C600, periplasm, pTRC99a
Outline: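 Sialidase-treated bovine submaxillary mucin (ds-BSM) coated wells, BSA-blocked, then biotinylated FmlH^LD (20 μg/mL) with or without compound for 1 h at room temperature. Bound lectin detected by streptavidin-HRP/TMB, A450.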

FmlHLD [2] = molecular target: T1, FmlHLD; experiment: biochemical; type: binding, E. coli; settings: Kd (μM), inhibitory constants, fixed FmlHLD, varying galactoside in solution, immobilized ser-TF
Description: Bio-layer interferometry (BLI) was used to quantitate the binding affinity of select galactosides to FmlH.
Thereafter, pins were dipped in PBS for 120 s and transferred to protein samples (varying concentration of FmlHLD or fixed concentration of FmlHLD with varying concentration of galactoside compounds) for association for 300-600 s.

[3] = mean with standard error of the mean
[4] = read-out: PI1 (percent inhibition), galactoside at 1 μM, mean with standard error of the mean
[5] = read-out: PI100 (percent inhibition), galactoside at 100 μM, mean with standard error of the mean
[6] = IC50 (μM), Table 5, Gal and GalNAc inhibition of FmlH
[7] = IC50, inhibition of FmlHLD binding to ds-BSM
[8] = read-out: % Inhibition at [μM] [1], compound at 1 μM, inhibition of FmlHLD binding to ds-BSM
[9] = read-out: PI(1) (average percent inhibition), compound at 1 μM, Table 4

T1 sequence (P77588 25-182): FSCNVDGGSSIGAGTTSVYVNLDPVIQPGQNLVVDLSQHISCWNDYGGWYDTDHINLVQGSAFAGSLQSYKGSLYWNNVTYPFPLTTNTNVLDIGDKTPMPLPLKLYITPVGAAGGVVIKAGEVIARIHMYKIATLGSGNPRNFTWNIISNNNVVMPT

Cc1cc(=O)oc2cc(O[C@@H]3O[C@H](CO)[C@H](O)[C@H](O)[C@H]3O)ccc12 [Compound 12β]
PI100 (percent inhibition) (FmlHLD [1]; [3]): 85.3 ± 0.7%
inhibition at 1 µM (FmlHLD [1]; [4]): 8.7 ± 3.1%
inhibition at 10 µM (FmlHLD [1]; [3]): 19.7 ± 4.2%
inhibition at 100 µM (FmlHLD [1]; [5]): 85%

O=C(O)c1cc(-c2ccccc2O[C@@H]2O[C@H](CO)[C@H](O)[C@H](O)[C@H]2O)cc([N+](=O)[O-])c1 [AM2050, 5-nitro-2′-(((2S,3R,4S,5R,6R)-3,4,5-trihydroxy-6-(hydroxymethyl)tetrahydro-2H-pyran-2-yl)oxy)-[1,1′-biphenyl]-3-car oxylic acid]
potency relative to matched pair Gal/GalNAc derivative (FmlHLD [1]; 2038 vs 2043, 2050 vs 3029): 6 fold
IC50 (FmlHLD [1]; [6]): 0.28 µM
IC50 (FmlHLD [1]; [7]): 0.418 µM
inhibition at 0.1 µM (FmlHLD [1]; read-out: % Inhibition at [μM] [0.1], compound at 0.1 μM (100 nM), inhibition of FmlHLD binding to ds-BSM): 7.6%
inhibition at 1 µM (FmlHLD [1]; [8]): 68%
inhibition at 0.1 µM (FmlHLD [1]; read-out: PI (0.1) (average percent inhibition), compound at 100 nM, Table 4): 7.6%
inhibition at 1 µM (FmlHLD [1]; [9]): 68%

OC[C@H]1O[C@H](Oc2ccc(-c3ccccc3)cc2)[C@H](O)[C@@H](O)[C@H]1O [Compound 32α, [1,1′-biphenyl]-4-yl α/β-D-galactopyranoside]
inhibition at 10 µM (FmlHLD [1]; [3]): 22.6 ± 3.9%
inhibition at 100 µM (FmlHLD [1]; [5]): 86.5 ± 1.7%

CC(=O)N[C@@H]1[C@H](Oc2cccc(C(=O)O)c2-c2cccc(NS(C)(=O)=O)c2)OC(CO)[C@H](O)[C@@H]1O (stereo partly drawn) [Compound 3082, 6-(((2S,3S,4R,5R)-3-acetamido-4,5-dihydroxy-6-(hydroxymethyl)tetrahydro-2H-pyran-2-yl)oxy)-3′-(methylsulfonamido)-[1,1′-biphenyl]-2-carboxylic acid]
IC50 (FmlHLD [1]; IC50 (μM), Table 6, sulfonamides 3078-3090): 0.13 µM

CC(=O)N[C@H]1[C@H](Oc2cccc(C)c2-c2cccc(NS(=O)(=O)N(C)C)c2)O[C@H](CO)[C@H](O)[C@@H]1O [AM2152]
IC50 (FmlHLD [1]; [7]): 0.13 µM

CC(=O)N[C@H]1[C@H](Oc2ccc3ccccc3c2-c2cccc(NS(C)(=O)=O)c2)O[C@H](CO)[C@H](O)[C@@H]1O [AM2144]
IC50 (FmlHLD [1]; [7]): 0.18 µM

CC(=O)N[C@H]1[C@H](Oc2ccc3cccnc3c2)O[C@H](CO)[C@H](O)[C@@H]1O [AM1180, N-((2S,3R,4R,5R,6R)-4,5-dihydroxy-6-(hydroxymethyl)-2-(quinolin-7-yloxy)tetrahydro-2H-pyran-3-yl)acetamide]
inhibition at 1 µM (FmlHLD [1]; [8]): 15.4%
inhibition at 1 µM (FmlHLD [1]; [9]): 15.4%

CC(=O)N[C@@H]1[C@@H](O)[C@@H](O)[C@@H](CO)O[C@H]1O (stereo in doubt) [GalNAc, N-acetylgalactosamine, reference compound]
Kd (FmlHLD [2]): 189 ± 22.9 µM
inhibition at 100 µM (FmlHLD [1]; read-out: % Inhibition at [μM] [100], compound at 100 μM, inhibition of FmlHLD binding to ds-BSM): 28.4%
inhibition at 100 µM (FmlHLD [1]; [5]): 28.5 ± 5.2%
inhibition of FmlHLD binding to ds-BSM, in words (FmlHLD [1]; soluble compound at 1 mM): capable of inhibiting FmlHLD

COc1cc(OC)cc(O[C@@H]2O[C@H](CO)[C@H](O)[C@H](O)[C@H]2O)c1 [Compound 7β, 3,5-dimethoxyphenyl β-D-galactopyranoside]
PI100 (percent inhibition) (FmlHLD [1]; [3]): 76.4 ± 2.4%
inhibition at 10 µM (FmlHLD [1]; [3]): 11.7 ± 2.7%
inhibition at 100 µM (FmlHLD [1]; [5]): 76%

CC(=O)N[C@@H]1[C@H](Oc2ccccc2-c2cc(C(=O)O)cc([N+](=O)[O-])c2)OC(CO)[C@H](O)[C@@H]1O (stereo partly drawn) [Compound 3029, 2′-(((2S,3S,4R,5R)-3-acetamido-4,5-dihydroxy-6-(hydroxymethyl)tetrahydro-2H-pyran-2-yl)oxy)-5-nitro-[1,1′-biphenyl]-3-carboxylic acid]
IC50 (FmlHLD [1]; [6]): 2.2 µM

CC(=O)N[C@H]1[C@H](Oc2ccccc2[N+](=O)[O-])O[C@H](CO)[C@H](O)[C@@H]1O [Compound 4β-NAc]
Kd (FmlHLD [2]): 2.3 µM
PI10 (percent inhibition) (FmlHLD [1]; galactoside at 10 μM, mean with standard error of the mean, 10 µM): 87.2 ± 1.7%
inhibition at 1 µM (FmlHLD [1]; [4]): 28.6 ± 4.5%
inhibition at 10 µM (FmlHLD [1]; [3]): 87%
inhibition at 100 µM (FmlHLD [1]; [5]): 99.4 ± 1.3%

O=[N+]([O-])c1cccc(-c2ccccc2O[C@@H]2O[C@H](CO)[C@H](O)[C@H](O)[C@H]2O)c1 [AM3049]
IC50 (FmlHLD [1]; [7]): 15 µM

CC(=O)N[C@H]1[C@H](Oc2ccccc2-c2cccc(C#N)c2)O[C@H](CO)[C@H](O)[C@@H]1O [AM2035, N-((2S,3R,4R,5R,6R)-2-((3′-cyano-[1,1′-biphenyl]-2-yl)oxy)-4,5-dihydroxy-6-(hydroxymethyl)tetrahydro-2H-pyran-3-yl)acetamide]
inhibitory potency against FmlH, in words (FmlHLD [1]; ELISA-based competition assay): equal or slightly reduced potency
IC50 (FmlHLD [1]; [6]): 0.97 µM
inhibition at 1 µM (FmlHLD [1]; [8]): 20.9%
inhibition at 1 µM (FmlHLD [1]; [9]): 20.9%

O=[N+]([O-])c1ccccc1O[C@@H]1O[C@H](COP(=O)(O)O)[C@H](O)[C@H](O)[C@H]1O [ONPG-6P, reference compound]
% Inhibition at [μM] [100] (FmlHLD [1]; compound at 100 μM, inhibition of FmlHLD binding to ds-BSM): 1.31%
